From patent publication US11197914B2, “GLP-1R/GCGR dual target agonist polypeptide for treatment of fatty liver diseases, hyperlipemia and arteriosclerosis” (Shenzhen Turier Biotech Co., Ltd., priority 2016, dated 2021)
*1 amine or outer side, *2 acyl side, *3 side chain or, on linkers, in order; H or OH if unused. Primed or numbered codes have the meaning given here. Where no end group is shown, it is not given here. Side-chain parts run from the residue outwards. [ ]: non-standard residue; d: D form. The star is where a group is joined. C18 diacid = O=C(O)CCCCCCCCCCCCCCCCC(=O)*; C16 diacid = O=C(O)CCCCCCCCCCCCCCC(=O)*; γGlu = O=C(O)[C@H](CCC(=O)[*:2])N[*:1]; Stearoyl = CCCCCCCCCCCCCCCCCC(=O)*; Palmitoyl = CCCCCCCCCCCCCCCC(=O)*; Nle = CCCC[C@H](N)C(=O)O; PEG2′ = not defined here; Aib = CC(C)(N)C(=O)O

Tested on: Hepatic stellate cell strain LX-2
Experiment: In vitro inhibition of hepatic fibrosis: expression of LX-2 cell activation marker α-SMA (Western Blot, α-SMA/β-actin)
Format: cell-based, human
Details: LX-2 cells; for Relative expression of α-SMA (α-SMA/β-actin, %): 48 hours, negative control = 100%
Experimental: Hepatic stellate cell strain LX-2 was selected to study and observe the effect of different doses of test substances on the expression of LX-2 cell activation marker […]. Hepatic stellate cell LX-2 was laid on 35 mm cell culture plate, cultured with DMEM (high glucose)+10% FBS+1% double-antibody culture medium (Thermo Fisher), placed overnight when the cells grew to 70% convergence at 37° C. and under the condition of 5% CO2, and treated with the above compounds 1-37 (dissolved in PBS) for 48 hours the next day morning to extract cell protein, carry out Western Blot, and take β-actin as internal reference and analyze the expression quantities of α-SMA and β-actin by a gray level of Image J 1.50i. PBS with the same volume as that in experimental group was added in negative control. […] The integrating gray level of α-SMA/β-actin in the negative control group was 100% to analyze the in vitro inhibition activity of hepatic fibrosis of tested polypeptide.

Row | Substance | Relative expression of α-SMA (α-SMA/β-actin, %) (1 μM) [%] | also measured
1 | His-(D-Ser)-Gln-Gly-Thr-Phe-Thr-Ser-Asp-Lys(PEG2-PEG2-CO(CH2)16CH3)-Ser-Lys-Tyr-Leu-Asp-Aib-Arg-Arg-Ala-Gln-Asp-Phe-Val-Gln-Trp-Leu-Met-Asn-Thr-Gly-Gly-Pro-Ser-Ser-Gly-Ala-Pro-Pro-Pro-Ser-NH2 (H[dS]QGTFTSDK([PEG2′-PEG2′-Stearoyl])SKYLD[Aib]RRAQDFVQWLMNTGGPSSGAPPPS-NH2) [Compound 32] | 97.14 | 
2 | His-(D-Ser)-Gln-Gly-Thr-Phe-Thr-Ser-Asp-Lys(PEG2-PEG2-γGlu-CO(CH2)14CH3)-Ser-Lys-Tyr-Leu-Asp-Aib-Arg-Arg-Ala-Gln-Asp-Phe-Val-Gln-Trp-Leu-Met-Asn-Thr-Gly-Gly-Pro-Ser-Ser-Gly-Ala-Pro-Pro-Pro-Ser-NH2 (H[dS]QGTFTSDK([PEG2′-PEG2′-γGlu-Palmitoyl])SKYLD[Aib]RRAQDFVQWLMNTGGPSSGAPPPS-NH2) [Compound 4] | 88.50 | 
3 | His-(D-Ser)-Gln-Gly-Thr-Phe-Thr-Ser-Asp-Tyr-Ser-Lys-Tyr-Leu-Asp-Lys(PEG2-PEG2-γGlu-CO(CH2)14CH3)-Arg-Arg-Ala-Gln-Asp-Phe-Val-Gln-Trp-Leu-Nle-Asn-Thr-Gly-Gly-Pro-Ser-Ser-Gly-Ala-Pro-Pro-Pro-Ser-NH2 (H[dS]QGTFTSDYSKYLDK([PEG2′-PEG2′-γGlu-Palmitoyl])RRAQDFVQWL[Nle]NTGGPSSGAPPPS-NH2) [Compound 37] | 42.45 | 
4 | His-Aib-Gln-Gly-Thr-Phe-Thr-Ser-Asp-Lys(PEG2-PEG2-γGlu-CO(CH2)16CO2H)-Ser-Lys-Tyr-Leu-Asp-Glu-Arg-Arg-Ala-Gln-Asp-Phe-Val-Gln-Trp-Leu-Leu-Asp-Gly-Gly-Pro-Ser-Ser-Gly-Ala-Pro-Pro-Pro-Ser-NH2 (H[Aib]QGTFTSDK([PEG2′-PEG2′-γGlu-C18 diacid])SKYLDERRAQDFVQWLLDGGPSSGAPPPS-NH2) [Compound 15] | 77.29 | 
5 | His-(D-Ser)-Gln-Gly-Thr-Phe-Thr-Ser-Asp-Tyr-Ser-Lys-Tyr-Leu-Asp-Ser-Lys(PEG2-PEG2-γGlu-CO(CH2)16CO2H)-Ala-Ala-His-Asp-Phe-Val-Glu-Trp-Leu-Leu-Asn-Gly-Gly-Pro-Ser-Ser-Gly-Ala-Pro-Pro-Pro-Ser-NH2 (H[dS]QGTFTSDYSKYLDSK([PEG2′-PEG2′-γGlu-C18 diacid])AAHDFVEWLLNGGPSSGAPPPS-NH2) [Compound 21] | 97.66 | 
6 | His-(D-Ser)-Gln-Gly-Thr-Phe-Thr-Ser-Asp-Tyr-Ser-Lys-Tyr-Leu-Asp-Aib-Lys(PEG2-PEG2-CO(CH2)16CO2H)-Arg-Ala-Gln-Asp-Phe-Val-Gln-Trp-Leu-Met-Asn-Thr-Gly-Gly-Pro-Ser-Ser-Gly-Ala-Pro-Pro-Pro-Ser-NH2 (H[dS]QGTFTSDYSKYLD[Aib]K([PEG2′-PEG2′-C18 diacid])RAQDFVQWLMNTGGPSSGAPPPS-NH2) [Compound 10] | 71.49 | 
7 | His-Aib-Gln-Gly-Thr-Phe-Thr-Ser-Asp-Lys(PEG2-PEG2-γGlu-CO(CH2)14CH3)-Ser-Lys-Tyr-Leu-Asp-Glu-Arg-Arg-Ala-Gln-Asp-Phe-Val-Gln-Trp-Leu-Leu-Asp-Gly-Gly-Pro-Ser-Ser-Gly-Ala-Pro-Pro-Pro-Ser-NH2 (H[Aib]QGTFTSDK([PEG2′-PEG2′-γGlu-Palmitoyl])SKYLDERRAQDFVQWLLDGGPSSGAPPPS-NH2) [Compound 16] | 48.88 | Inhibition of LX-2 cell activation marker α-SMA (in words, from Table 2): obviously reduce; Effect on expression of α-SMA (in words) (0.1 μM, 1 μM and 5 μM): reduce the expression of α-SMA under all concentrations; Relative expression of α-SMA (α-SMA/β-actin, %) (0.1 μM): 65.32%; Relative expression of α-SMA (α-SMA/β-actin, %) (5 μM): 40.35%
8 | His-(D-Ser)-Gln-Gly-Thr-Phe-Thr-Ser-Asp-Tyr-Ser-Lys-Tyr-Leu-Asp-Glu-Lys-Ala-Ala-Lys(PEG2-PEG2-γGlu-CO(CH2)16CO2H)-Glu-Phe-Ile-Glu-Trp-Leu-Leu-Asn-Gly-Gly-Pro-Ser-Ser-Gly-Ala-Pro-Pro-Pro-Ser-NH2 (H[dS]QGTFTSDYSKYLDEKAAK([PEG2′-PEG2′-γGlu-C18 diacid])EFIEWLLNGGPSSGAPPPS-NH2) [Compound 26] | 94.44 | 
9 | His-Aib-Gln-Gly-Thr-Phe-Thr-Ser-Asp-Lys(PEG2-PEG2-γGlu-CO(CH2)14CH3)-Ser-Lys-Tyr-Leu-Asp-Aib-Arg-Arg-Ala-Gln-Asp-Phe-Val-Gln-Trp-Leu-Leu-Asp-Gly-Gly-Pro-Ser-Ser-Gly-Ala-Pro-Pro-Pro-Ser-NH2 (H[Aib]QGTFTSDK([PEG2′-PEG2′-γGlu-Palmitoyl])SKYLD[Aib]RRAQDFVQWLLDGGPSSGAPPPS-NH2) [Compound 8] | 80.25 | 
10 | His-Aib-Gln-Gly-Thr-Phe-Thr-Ser-Asp-Lys(PEG2-PEG2-γGlu-CO(CH2)14CO2H)-Ser-Lys-Tyr-Leu-Asp-Glu-Arg-Arg-Ala-Gln-Asp-Phe-Val-Gln-Trp-Leu-Leu-Asp-Gly-Gly-Pro-Ser-Ser-Gly-Ala-Pro-Pro-Pro-Ser-NH2 (H[Aib]QGTFTSDK([PEG2′-PEG2′-γGlu-C16 diacid])SKYLDERRAQDFVQWLLDGGPSSGAPPPS-NH2) [Compound 13] | 97.93 | 
11 | His-(D-Ser)-Gln-Gly-Thr-Phe-Thr-Ser-Asp-Tyr-Ser-Lys-Tyr-Leu-Asp-Glu-Lys-Ala-Ala-Lys(PEG2-PEG2-γGlu-CO(CH2)14CO2H)-Glu-Phe-Ile-Glu-Trp-Leu-Leu-Asn-Gly-Gly-Pro-Ser-Ser-Gly-Ala-Pro-Pro-Pro-Ser-NH2 (H[dS]QGTFTSDYSKYLDEKAAK([PEG2′-PEG2′-γGlu-C16 diacid])EFIEWLLNGGPSSGAPPPS-NH2) [Compound 27] | 92.34 | 
12 | His-(D-Ser)-Gln-Gly-Thr-Phe-Thr-Ser-Asp-Tyr-Ser-Lys-Tyr-Leu-Asp-Glu-Lys-Ala-Ala-Lys(PEG2-PEG2-γGlu-CO(CH2)14CH3)-Glu-Phe-Ile-Glu-Trp-Leu-Leu-Arg-Ala-NH2 (H[dS]QGTFTSDYSKYLDEKAAK([PEG2′-PEG2′-γGlu-Palmitoyl])EFIEWLLRA-NH2) [Compound 23] | 95.91 | 
13 | His-Aib-Gln-Gly-Thr-Phe-Thr-Ser-Asp-Lys(PEG2-PEG2-γGlu-CO(CH2)16CH3)-Ser-Lys-Tyr-Leu-Asp-Aib-Arg-Arg-Ala-Gln-Asp-Phe-Val-Gln-Trp-Leu-Leu-Asp-Gly-Gly-Pro-Ser-Ser-Gly-Ala-Pro-Pro-Pro-Ser-NH2 (H[Aib]QGTFTSDK([PEG2′-PEG2′-γGlu-Stearoyl])SKYLD[Aib]RRAQDFVQWLLDGGPSSGAPPPS-NH2) [Compound 12] | 72.99 | 
14 | His-(D-Ser)-Gln-Gly-Thr-Phe-Thr-Ser-Asp-Tyr-Ser-Lys-Tyr-Leu-Asp-Lys(PEG2-PEG2-γGlu-CO(CH2)16CH3)-Arg-Arg-Ala-Gln-Asp-Phe-Val-Gln-Trp-Leu-Met-Asn-Thr-Gly-Gly-Pro-Ser-Ser-Gly-Ala-Pro-Pro-Pro-Ser-NH2 (H[dS]QGTFTSDYSKYLDK([PEG2′-PEG2′-γGlu-Stearoyl])RRAQDFVQWLMNTGGPSSGAPPPS-NH2) [Compound 36] | 62.49 | Inhibition of LX-2 cell activation marker α-SMA (in words, from Table 2): obviously reduce
15 | His-(D-Ser)-Gln-Gly-Thr-Phe-Thr-Ser-Asp-Lys(PEG2-PEG2-CO(CH2)14CH3)-Ser-Lys-Tyr-Leu-Asp-Aib-Arg-Arg-Ala-Gln-Asp-Phe-Val-Gln-Trp-Leu-Met-Asn-Thr-Gly-Gly-Pro-Ser-Ser-Gly-Ala-Pro-Pro-Pro-Ser-NH2 (H[dS]QGTFTSDK([PEG2′-PEG2′-Palmitoyl])SKYLD[Aib]RRAQDFVQWLMNTGGPSSGAPPPS-NH2) [Compound 31] | 86.89 | 
16 | His-(D-Ser)-Gln-Gly-Thr-Phe-Thr-Ser-Asp-Lys(PEG2-PEG2-CO(CH2)16CO2H)-Soer-Lys-Tyr-Leu-Asp-Aib-Arg-Arg-Ala-Gln-Asp-Phe-Val-Gln-Trp-Leu-Met-Asn-Thr-Gly-Gly-Pro-Ser-Ser-Gly-Ala-Pro-Pro-Pro-Ser-NH2 (H[dS]QGTFTSDK([PEG2′-PEG2′-C18 diacid])SKYLD[Aib]RRAQDFVQWLMNTGGPSSGAPPPS-NH2) [Compound 30] | 85.53 | 
17 | His-(D-Ser)-Gln-Gly-Thr-Phe-Thr-Ser-Asp-Tyr-Ser-Lys(PEG2-PEG2-γGlu-CO(CH2)16CO2H)-Lys-Leu-Asp-Aib-Arg-Arg-Ala-Gln-Asp-Phe-Val-Gln-Trp-Leu-Met-Asn-Thr-Gly-Gly-Pro-Ser-Ser-Gly-Ala-Pro-Pro-Pro-Ser-NH2 (H[dS]QGTFTSDYSK([PEG2′-PEG2′-γGlu-C18 diacid])KLD[Aib]RRAQDFVQWLMNTGGPSSGAPPPS-NH2) [Compound 20] | 68.39 | Inhibition of LX-2 cell activation marker α-SMA (in words, from Table 2): obviously reduce
18 | His-(D-Ser)-Gln-Gly-Thr-Phe-Thr-Ser-Asp-Tyr-Ser-Lys-Tyr-Leu-Asp-Glu-Lys-Ala-Ala-Lys(PEG2-PEG2-γGlu-CO(CH2)16CH3)-Glu-Phe-Ile-Glu-Trp-Leu-Leu-Asn-Gly-Gly-Pro-Ser-Ser-Gly-Ala-Pro-Pro-Pro-Ser-NH2 (H[dS]QGTFTSDYSKYLDEKAAK([PEG2′-PEG2′-γGlu-Stearoyl])EFIEWLLNGGPSSGAPPPS-NH2) [Compound 28] | 87.62 | 
